According to patent US10752591B2, “18-20 member bi-polycyclic compounds” (Haro Pharmaceutical Inc., priority 2014, dated 2020):

What was measured:
[1] = system: IMR-32 neuroblastoma cells; assay: cytotoxicity, cell survival (CellTiterGlo) in IMR-32; type: cell-based; conditions: relative to compounds 17 and 8
Description: The cytotoxicity of compounds was examined and directly compared to compound 17, by measuring cell survival of clonal tumor cell lines IMR-32, BE2C (neuroblastoma), as well as MDA-MB-231, BT20, HCC-38 (Basal) and MCF7 (luminal) breast cancer cells (ATCC). Cells were cultured in phenol red-free RPMI medium supplemented with 10% FBS and 1 mM Ala-Glu. Typically, 10,000-20,000 cells/well were plated in a 96 well plate (Costar 3197). Cells were exposed to compounds or vehicle (1% DMSO final). Cells were maintained in the presence of compound for four or five days. Media and compounds were renewed every 48 hours. Cell survival was measured using the luminescence CellTiterGlo kit (Promega Corporation) and expressed as relative light unit as fold over DMSO.

RAR = assay: RAR-mediated transcription, RARE-tk luciferase reporter in MCF7 cells; type: cell-based
Excerpt: The effect of various compounds of the invention on RAR-mediated transcription in MCF7 breast cancer cells was examined by measuring their effect on the transcription of a luciferase reporter gene under the control of a TK promoter placed downstream of a RAR response element. In addition, the effect of the compounds on the closely related RXR-mediated transcription was examined by measuring their effect on the transcription of a luciferase reporter gene under the control of a TK promoter placed downstream of a RXR response element.
Typically, 10,000 cells were plated in 96 wells plates in phenol red-free RPMI medium supplemented with 10% charcoal-stripped Fetal Bovine Serum. After 24 hours, cells were transfected with 0.1 μg of luciferase reporter plasmid and 0.01 μg of a reporter plasmid expressing renilla luciferase (RLuc) gene under the control of a SV40 promoter, using Fugene 6 transfection reagent (0.5 μl/well Promega Corporation). Cells were treated in triplicate with compounds or vehicle (DMSO) for 24 hours. Luciferase and renilla luciferase activities were measured using Dual-Glo reagent (Promega Corporation). Luciferase activity was normalized in each well for renilla activity.

mouse pharmacokinetics = type: in vivo; conditions: mice
Description: Mouse pharmacokinetics studies were conducted in female athymic nude or male C57/B6 mice (n=3). Due to its very poor aqueous solubility, compound 17 was formulated in 66% PEG-400/33% H2O-1% Tween-80. In contrast compound 13 was formulated in 66% PEG-400/33% H2O. Compounds were administered PO (30 mg/kg) or IV (5 mg/kg), and plasma concentrations were measured by UV/HPLC.

[2] = molecular target: T1, purified recombinant human HDAC-6 (Homo sapiens, UniProt Q9UBN7); assay: HDAC-6 enzymatic inhibition (AMC fluorogenic peptide deacetylation); type: biochemical; conditions: relative to compound 17
T1 construct: purchased Cayman Chem 10009465
T1 sequence (Q9UBN7 1-1215): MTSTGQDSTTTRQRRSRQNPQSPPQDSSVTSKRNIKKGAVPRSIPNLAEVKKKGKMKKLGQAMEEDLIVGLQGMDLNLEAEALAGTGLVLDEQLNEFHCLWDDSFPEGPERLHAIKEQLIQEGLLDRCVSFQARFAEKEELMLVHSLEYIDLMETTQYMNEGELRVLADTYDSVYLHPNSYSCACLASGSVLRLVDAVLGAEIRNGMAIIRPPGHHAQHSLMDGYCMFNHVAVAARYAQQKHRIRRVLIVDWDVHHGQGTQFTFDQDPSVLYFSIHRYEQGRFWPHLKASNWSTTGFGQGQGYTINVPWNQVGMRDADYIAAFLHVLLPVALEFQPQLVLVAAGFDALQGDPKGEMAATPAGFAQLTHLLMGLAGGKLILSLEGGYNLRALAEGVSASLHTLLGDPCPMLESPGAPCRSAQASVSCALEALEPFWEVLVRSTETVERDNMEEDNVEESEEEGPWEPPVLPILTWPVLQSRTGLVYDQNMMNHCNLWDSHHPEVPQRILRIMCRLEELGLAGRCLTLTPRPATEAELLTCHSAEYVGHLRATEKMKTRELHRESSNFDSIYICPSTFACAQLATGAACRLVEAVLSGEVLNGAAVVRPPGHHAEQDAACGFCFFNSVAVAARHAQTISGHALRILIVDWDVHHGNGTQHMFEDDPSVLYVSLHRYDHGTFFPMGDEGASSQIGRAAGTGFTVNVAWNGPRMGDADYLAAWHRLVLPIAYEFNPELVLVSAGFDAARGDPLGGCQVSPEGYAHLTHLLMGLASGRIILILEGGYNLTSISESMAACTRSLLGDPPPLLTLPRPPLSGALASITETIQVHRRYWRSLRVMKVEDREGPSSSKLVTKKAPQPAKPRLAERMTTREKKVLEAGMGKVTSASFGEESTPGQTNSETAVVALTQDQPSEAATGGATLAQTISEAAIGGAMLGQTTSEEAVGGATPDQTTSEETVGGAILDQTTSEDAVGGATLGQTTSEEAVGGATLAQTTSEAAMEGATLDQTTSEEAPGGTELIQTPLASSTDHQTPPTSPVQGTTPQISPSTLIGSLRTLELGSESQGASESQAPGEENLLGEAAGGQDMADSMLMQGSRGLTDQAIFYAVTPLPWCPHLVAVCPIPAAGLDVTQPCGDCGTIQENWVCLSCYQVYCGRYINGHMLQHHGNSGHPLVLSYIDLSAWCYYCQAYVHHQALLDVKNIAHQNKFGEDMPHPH
Description: The effect of compounds on the enzymatic activity of purified recombinant human HDAC-1, -2, -3, -6, and -8 activity and of purified rat liver HDAC was examined by measuring the deacetylation of synthetic peptides in various preparations of HDACs. HDAC assays were performed using a two-step enzymatic reaction where enzyme activity is correlated to the release of […] (AMC). AMC fluorescence is measured in a fluorescent plate reading using λex380 nm and λen440 nm.
The reaction was allowed to proceed for 40 min at 37° C., after which developer solution (0.5% trypsin, 10 μM trichostatin A (TSA)) was added to obtain a final concentration of 0.1% trypsin, 2 μM TSA. After 30 minutes at room temperature, the amount of free fluorogenic AMC was measured as described above.

[3] = PO (30 mg/kg) or IV (5 mg/kg), route per parameter not stated

CC1(C)CCC(C)(C)c2cc(-c3cc4cc(C(=O)NO)ccc4[nH]3)ccc21 [Compound 13]
fold more potent than compounds 17 and 8 in killing IMR-32 cells [1]: ten
RARE-dependent luciferase expression (RAR): activated
times more potent than compound 17 in activating RARE-tk_luc reporter (RAR; relative to compound 17): five to ten
T max compared with compound 17 (mouse pharmacokinetics): markedly reduced
oral bioavailability, AUC, Cmax compared with compound 17 (mouse pharmacokinetics): markedly higher
AUC0-∞ (mouse pharmacokinetics; [3]): 42.00 µM·h
CLp (mouse pharmacokinetics; [3]): 0.24 mL/min/kg
Cmax (mouse pharmacokinetics; [3]): 5.54 µM
MRT (mouse pharmacokinetics; [3]): 6.9 h
Tmax (mouse pharmacokinetics; [3]): 1.4 h
Vd,ss (mouse pharmacokinetics; [3]): 8 L/kg
fold more potent than compound 17 in HDAC-6 inhibition [2]: at least 50
